Reference: ChEMBL document CHEMBL1128635, “Structure-activity studies of the natural product substance P antagonist win 64821” (Bioorg Med Chem Lett, 1995)
pIC50: −log10 of the molar value.

Target: Substance-P receptor (Homo sapiens, UniProt P25103)
Experiment: Antagonistic activity against Tachykinin receptor 1
Type: functional

Chain of Substance-P receptor (P25103 whole entry): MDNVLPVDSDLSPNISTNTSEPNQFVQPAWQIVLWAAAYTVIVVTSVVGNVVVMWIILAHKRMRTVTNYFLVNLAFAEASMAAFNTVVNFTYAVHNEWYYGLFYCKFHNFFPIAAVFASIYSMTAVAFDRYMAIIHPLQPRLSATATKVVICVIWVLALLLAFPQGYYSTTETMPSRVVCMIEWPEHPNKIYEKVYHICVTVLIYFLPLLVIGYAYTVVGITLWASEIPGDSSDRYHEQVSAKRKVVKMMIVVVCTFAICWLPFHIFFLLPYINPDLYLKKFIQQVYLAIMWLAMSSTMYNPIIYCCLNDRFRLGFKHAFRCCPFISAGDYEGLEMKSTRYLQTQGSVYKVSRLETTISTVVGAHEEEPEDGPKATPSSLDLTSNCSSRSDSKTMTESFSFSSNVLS

Compound | pIC50
O=C1N[C@@H](Cc2ccccc2)C(=O)N2[C@H]3Nc4ccccc4[C@@]3(O)C[C@@H]12 | < 4.00
O=C1N[C@@H](Cc2ccccc2)C(=O)N2[C@H]3Nc4ccccc4C3(C34C[C@H]5C(=O)N[C@@H](Cc6ccccc6)C(=O)N5[C@H]3Nc3ccccc34)C[C@@H]12 (stereo partly drawn) | 6.62
Cc1cccc2c1C1(C34C[C@H]5C(=O)N[C@@H](Cc6ccccc6)C(=O)N5[C@H]3Nc3cccc(C)c34)C[C@H]3C(=O)N[C@@H](Cc4ccccc4)C(=O)N3[C@H]1N2 (stereo partly drawn) | 5.24
COc1ccc(N)cc1C[C@]12C[C@H]3C(=O)N[C@@H](Cc4ccccc4)C(=O)N3[C@H]1Nc1ccccc12 | 4.59
COc1ccc(N)cc1C[C@@]12C[C@H]3C(=O)N[C@@H](Cc4ccccc4)C(=O)N3[C@@H]1Nc1ccccc12 | 4.42
O=C1N[C@@H](Cc2ccccc2)C(=O)N2[C@H]1C[C@@]1(O)c3ccccc3N[C@@H]21 | < 4.00
Cc1cccc2c1C1(C34C[C@H]5C(=O)N[C@@H](Cc6ccccc6)C(=O)N5[C@H]3Nc3ccccc34)C[C@H]3C(=O)N[C@@H](Cc4ccccc4)C(=O)N3[C@H]1N2 (stereo partly drawn) | 6.36
O=C1[C@@H]2C[C@@]3(Cc4cc([N+](=O)[O-])ccc4O)c4ccccc4N[C@H]3N2C(=O)[C@H](Cc2ccccc2)N1Cc1cc([N+](=O)[O-])ccc1O | < 4.00
O=C1[C@@H]2C[C@]3(Cc4cc([N+](=O)[O-])ccc4O)c4ccccc4N[C@@H]3N2C(=O)[C@H](Cc2ccccc2)N1Cc1cc([N+](=O)[O-])ccc1O | < 4.00

The remaining lines, values ahead:

pIC50 | Compound
4.01 | O=C1N[C@@H](Cc2ccccc2)C(=O)N2[C@H]1C[C@@]1(Cc3cc([N+](=O)[O-])ccc3O)c3ccccc3N[C@@H]21
4.06 | COc1ccc([N+](=O)[O-])cc1C[C@@]12C[C@H]3C(=O)N[C@@H](Cc4ccccc4)C(=O)N3[C@@H]1Nc1ccccc12
4.27 | COc1ccc([N+](=O)[O-])cc1C[C@]12C[C@H]3C(=O)N[C@@H](Cc4ccccc4)C(=O)N3[C@H]1Nc1ccccc12
4.32 | O=C1N[C@@H](Cc2ccccc2)C(=O)N2[C@H]3Nc4ccccc4[C@@]3(Cc3cc([N+](=O)[O-])ccc3O)C[C@@H]12
